From US11136312B2, “3,4,5-trisubstituted-1,2,4-triazoles and 3,4,5-trisubstituted-3-thio-1,2,4-triazoles and uses thereof” (Board of Trustees of Southern Illinois University, priority 2017, dated 2021)

Legend:
Experiment in all cases: Competitive radioligand binding, 125I-Tyr-SRIF 14, membrane preparations
[1] = biological target: human somatostatin receptor SSTR1 (Homo sapiens (Human), UniProt P30872); details: competitive binding vs 125I-Tyr-SRIF 14, human SSTR1 membranes; read-out: SST1
Experimental: (§1) Respective membrane receptor preparations were prepared in assay buffer (25 mM HEPES, 10 mM MgCl2, 1 mM CaCl2, 0.5% BSA, pH=7.4) at a 1:150 dilution. […] Binding assays were performed in triplicate for each concentration of ligand in a total volume of 200 μL radioligand (25 μL ligand, 25 μL radioligand, 150 μL receptors) and incubated at room temperature for 90 minutes using a shaking table. Binding was terminated by filtration through GF/B glass fiber filters that were presoaked in 0.5% polyethyleneimine for a minimum of 4 hours. Filters were washed 9× with 1000 μL ice cold wash buffer (50 mM Tris-HCl, pH=7.4, 0.2% BSA). Filters were scored, transferred into plastic test tubes and counted in a gamma counter (Wizard2, Perkin-Elmer). Determination of the Ki for each compound was performed using non-linear regression with GraphPad PRISM-5 software (GraphPad Software, Inc., La Jolla, Calif.).

[2] = biological target: human somatostatin receptor SSTR5 (Homo sapiens (Human), UniProt P35346); details: competitive binding vs 125I-Tyr-SRIF 14, human SSTR5 membranes; read-out: SST5
Experimental: as §1

[3] = biological target: human somatostatin receptor SSTR2A (Homo sapiens (Human), UniProt P30874); details: competitive binding vs 125I-Tyr-SRIF 14, human SSTR2A membranes; read-out: SST2
Sequence of human somatostatin receptor SSTR2A (P30874 whole entry): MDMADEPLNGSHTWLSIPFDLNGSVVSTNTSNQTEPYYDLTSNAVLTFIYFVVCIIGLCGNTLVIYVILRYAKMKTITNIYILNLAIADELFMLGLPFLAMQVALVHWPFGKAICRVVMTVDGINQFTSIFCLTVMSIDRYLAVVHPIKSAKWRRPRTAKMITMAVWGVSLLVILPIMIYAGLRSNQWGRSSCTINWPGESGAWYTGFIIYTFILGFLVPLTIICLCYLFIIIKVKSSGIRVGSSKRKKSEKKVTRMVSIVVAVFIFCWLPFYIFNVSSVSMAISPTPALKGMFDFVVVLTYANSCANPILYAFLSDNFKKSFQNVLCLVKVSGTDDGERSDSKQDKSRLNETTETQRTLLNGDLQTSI
Experimental: as §1

[4] = biological target: human somatostatin receptor SSTR3 (Homo sapiens (Human), UniProt P32745); details: competitive binding vs 125I-Tyr-SRIF 14, human SSTR3 membranes; read-out: SST3
Experimental: Competitive radioligand binding experiments were performed using MEMBRANE TARGET Systems (Perkin-Elmer, Boston, Mass.) for human somatostatin receptors: SSTR1 (ES-520-M400UA), SSTR2A (ES-521-M400UA), SSTR3 (ES523-M400UA), SSTR4 (ES-524-M400UA) and SSTR5 (ES-522-M400UA) receptors. (See Table 1). Respective membrane receptor preparations were prepared in assay buffer (25 mM HEPES, 10 mM MgCl2, 1 mM CaCl2, 0.5% BSA, pH=7.4) at a 1:150 dilution. Binding assays were performed using 1251-Tyr-SRIF 14 (Perkin-Elmer, NEX 3890) dissolved in 1 mM HCl. Binding assays were performed in triplicate for each concentration of ligand in a total volume of 200 μL radioligand (25 μL ligand, 25 μL radioligand, 150 μL receptors) and incubated at room temperature for 90 minutes using a shaking table. Binding was terminated by filtration through GF/B glass fiber filters that were presoaked in 0.5% polyethyleneimine for a minimum of 4 hours. Filters were washed 9× with 1000 μL ice cold wash buffer (50 mM Tris-HCl, pH=7.4, 0.2% BSA). Filters were scored, transferred into plastic test tubes and counted in a gamma counter (Wizard2, Perkin-Elmer). Determination of the Ki for each compound was performed using non-linear regression with GraphPad PRISM-5 software (GraphPad Software, Inc., La Jolla, Calif.).

Ki [1] [µM]	Ki [2] [µM]	Ki [3] [µM]	Ki [4] [µM]	SMILES
1.01	> 10	> 10	> 10	COc1ccc(Cc2nnc(Cc3c[nH]c4ccc(OC)cc34)n2CCCc2c[nH]cn2)cc1 [SK-I-56, 3-((4-(3-(1H-imidazol-4-yl)propyl)-5-(4-methoxybenzyl)-4H-1,2,4-triazol-3-yl)methyl)-5-methoxy-1H-indole]
0.365	> 10	1.69	1.13	COc1ccc2[nH]cc(Cc3nnc(Cc4cccc(C(F)(F)F)c4)n3CCCc3c[nH]cn3)c2c1 [SK-I-57, 3-((4-(3-(1H-imidazol-4-yl)propyl)-5-(3-(trifluoromethyl)benzyl)-4H-1,2,4-triazol-3-yl)methyl)-5-methoxy-1H-indole]
0.468	> 10	3.97	> 10	Fc1ccc(Cc2nnc(Cc3c[nH]c4cc(F)ccc34)n2CCCc2c[nH]cn2)cc1 [SK-I-91, 3-((4-(3-(1H-imidazol-4-yl)propyl)-5-(4-fluorobenzyl)-4H-1,2,4-triazol-3-yl)methyl)-6-fluoro-1H-indole]
1.08	> 10	5.3	> 10	COc1ccc(Cc2nnc(Cc3c[nH]c4cc(F)ccc34)n2CCCc2c[nH]cn2)cc1 [SK-I-105, 3-((4-(3-(1H-imidazol-4-yl)propyl)-5-(4-methoxybenzyl)-4H-1,2,4-triazol-3-yl)methyl)-6-fluoro-1H-indole]
4.34	> 10	> 10	> 10	CC(C)(C)Cc1nnc(Cc2c[nH]c3cc(F)ccc23)n1CCCc1c[nH]cn1 [SK-I-119, 3-((4-(3-(1H-imidazol-4-yl)propyl)-5-neopentyl-4H-1,2,4-triazol-3-yl)methyl)-6-fluoro-1H-indole]
0.0978	> 10	0.64	1.74	Fc1ccc2c(Cc3nnc(Cc4c[nH]c5cc(F)ccc45)n3CCCc3c[nH]cn3)c[nH]c2c1 [SK-I-124, 3,3′-((4-(3-(1H-imidazol-4-yl)propyl)-4H-1,2,4-triazol-3,5-diyl)bis(methylene))bis(6-fluoro-1H-indole)]
> 10	> 10	> 10	> 10	c1ccc(Cc2nnc(CCc3c[nH]c4ccccc34)n2CCCc2c[nH]cn2)cc1 [SM-I-26, 3-(2-(4-(3-(1H-Imidazol-4-yl)propyl)-5-benzyl-4H-1,2,4-triazol-3-yl)ethyl)-1H-indole]
> 10	> 10	> 10	> 10	Fc1cccc(Cc2nnc(CCc3c[nH]c4ccccc34)n2CCCc2c[nH]cn2)c1 [SM-I-38, 3-(2-(4-(3-(1H-Imidazol-4-yl)propyl)-5-(3-fluorobenzyl)-4H-1,2,4-triazol-3-yl)ethyl)-1H-indole]
4.74	> 10	> 10	> 10	Brc1cccc(Cc2nnc(CCc3c[nH]c4ccccc34)n2CCCc2c[nH]cn2)c1 [SM-I-50, 3-(2-(4-(3-(1H-Imidazol-4-yl)propyl)-5-(3-bromobenzyl)-4H-1,2,4-triazol-3-yl)ethyl)-1H-indole]
> 10	> 10	> 10	> 10	Fc1cc(F)cc(Cc2nnc(CCc3c[nH]c4ccccc34)n2CCCc2c[nH]cn2)c1 [SM-I-55, 3-(2-(4-(3-(1H-Imidazol-4-yl)propyl)-5-(3,5-difluorobenzyl)-4H-1,2,4-triazol-3-yl)ethyl)-1H-indole]
3.17	> 10	> 10	6.99	Cn1cc(CCc2nnc(Cc3ccc(Cl)c(Cl)c3)n2CCCc2c[nH]cn2)c2ccccc21 [SM-I-60, 3-(2-(4-(3-(1H-Imidazol-4-yl)propyl)-5-(3,4-dichlorobenzyl)-4H-1,2,4-triazol-3-yl)ethyl)-1-methyl-1H-indole]
		> 10		CS(=O)(=O)c1cccc(Cc2nnc(CCc3c[nH]c4ccccc34)n2CCCc2c[nH]cn2)c1 [SM-I-92, 3-(2-(4-(3-(1H-imidazol-4-yl)propyl)-5-(3-(methylsulfonyl)benzyl)-4H-1,2,4-triazol-3-yl)ethyl)-1H-indole]

The next lines start with the compound.

SMILES	Ki [1] [µM]	Ki [2] [µM]	Ki [3] [µM]	Ki [4] [µM]
c1ccc(CSc2nnc(-c3c[nH]c4ccccc34)n2CCCc2c[nH]cn2)cc1 [AH-1-86, 3-(4-(3-(1H-imidazol-4-yl)propyl)-5-(benzylthio)-4H-1,2,4-triazol-3-yl)-1H-indole]	> 10	> 10		
Clc1cccc(Cc2nnc(CCc3c[nH]c4ccccc34)n2CCCc2c[nH]cn2)c1 [BN-VI-56, 3-(2-(4-(3-(1H-Imidazol-4-yl)propyl)-5-(3-chlorobenzyl)-4H-1,2,4-triazol-3-yl)ethyl)-1H-indole]	6.93	> 10	> 10	> 10
COc1cccc(Cc2nnc(CCc3c[nH]c4ccccc34)n2CCCc2c[nH]cn2)c1 [BN-VI-61, 3-(2-(4-(3-(1H-Imidazol-4-yl)propyl)-5-(3-methoxybenzyl)-4H-1,2,4-triazol-3-yl)ethyl)-1H-indole]	> 10	> 10	> 10	> 10
FC(F)(F)c1cccc(Cc2nnc(CCc3c[nH]c4ccccc34)n2CCCc2c[nH]cn2)c1 [BN-VI-97, 3-(2-(4-(3-(1H-Imidazol-4-yl)propyl)-5-(3-(trifluoromethyl)benzyl)-4H-1,2,4-triazol-3-yl)ethyl)-1H-indole]	5.31	> 10	> 10	> 10
Clc1ccccc1Cc1nnc(CCc2c[nH]c3ccccc23)n1CCCc1c[nH]cn1 [MM-I-17, 3-(2-(4-(3-(1H-Imidazol-4-yl)propyl)-5-(2-chlorobenzyl)-4H-1,2,4-triazol-3-yl)ethyl)-1H-indole]	> 10	> 10	> 10	> 10
COc1ccccc1Cc1nnc(CCc2c[nH]c3ccccc23)n1CCCc1c[nH]cn1 [MM-I-21, 3-(2-(4-(3-(1H-Imidazol-4-yl)propyl)-5-(2-methoxybenzyl)-4H-1,2,4-triazol-3-yl)ethyl)-1H-indole]	> 10	> 10	> 10	> 10
FC(F)(F)Oc1cccc(Cc2nnc(CCc3c[nH]c4ccccc34)n2CCCc2c[nH]cn2)c1 [MM-I-36, 3-(2-(4-(3-(1H-imidazol-4-yl)propyl)-5-(3-(trifluoromethoxy)benzyl)-4H-1,2,4-triazol-3-yl)ethyl)-1H-indole]	4.08		> 10	
FC(F)(F)c1cccc(Cc2nnc(Cc3c[nH]c4ccccc34)n2CCCc2c[nH]cn2)c1 [MM-I-66, 3-((4-(3-(1H-imidazol-4-yl)propyl)-5-(3-(trifluoromethyl)benzyl)-4H-1,2,4-triazol-3-yl)methyl)-1H-indole]	0.588	> 10	2.33	> 10
CS(=O)(=O)c1cccc(Cc2nnc(Cc3c[nH]c4ccccc34)n2CCCc2c[nH]cn2)c1 [MM-I-72, 3-((4-(3-(1H-imidazol-4-yl)propyl)-5-(3-(methylsulfonyl)benzyl)-4H-1,2,4-triazol-3-yl)methyl)-1H-indole]	0.661		> 10	
COc1ccc(Cc2nnc(Cc3c[nH]c4ccccc34)n2CCCc2c[nH]cn2)cc1 [SK-I-23, 3-((4-(3-(1H-imidazol-4-yl)propyl)-5-(4-methoxybenzyl)-4H-1,2,4-triazol-3-yl)methyl)-1H-indole]	2.58	> 10	> 10	> 10
COc1ccc2[nH]cc(Cc3nnc(Cc4ccccc4)n3CCCc3c[nH]cn3)c2c1 [SK-I-53, 3-((4-(3-(1H-imidazol-4-yl)propyl)-5-benzyl-4H-1,2,4-triazol-3-yl)methyl)-5-methoxy-1H-indole]	1.72	> 10	7.1	> 10
COc1ccc2[nH]cc(Cc3nnc(Cc4ccc(F)cc4)n3CCCc3c[nH]cn3)c2c1 [SK-I-55, 3-((4-(3-(1H-imidazol-4-yl)propyl)-5-(4-fluorobenzyl)-4H-1,2,4-triazol-3-yl)methyl)-5-methoxy-1H-indole]	1.03	> 10	5.43	> 10
